# Test results: US20220288114A1, “MULTI-AGENT OCULAR FORMULATIONS AND TREATMENT METHODS” (University of Utah Research Foundation, priority 2019, published 2022)
# What was measured:
# cornea = details: rabbits
# Text: The Ocular Response Analyzer (ORA; Reichert, Inc, Buffalo, N.Y.) is a commercially available noncontact tonometer that also assesses the viscoelastic nature of the cornea with bidirectional detection of applanation events to allow in vivo measurements of corneal biomechanical response parameters under air puff loading 42. The system includes an infrared emitter and detector aligned such that applanation produces a spike on the detector with a mirror like reflection from the flattened corneal surface.
# Two applanation pressure measurements are reported by the ORA: one while the cornea moves inward, reaching first applanation, at pressure P1, and the other after the cornea recovers from a slight concavity as it moves outward passing through a second applanation at pressure P2. Therefore, these two values, P1 and P2, indicate the pressures associated with a flattened cornea during the loading and unloading cycle, with P2<P1 for a valid measurement. The difference between P1 and P2 is termed corneal hysteresis (CH).
# A greater value for Peak 1 or Peak 2 indicates a larger area of applanation which is associated with a stiffer response. Thus, for the current study the
# ORA pressure and applanation signals were analyzed using custom software to determine the magnitudes of Peak 1 and Peak 2. ORA measurements were assessed at baseline and every week for 6-8 weeks on the same set of rabbits described in 2.4.b which included 4 groups Sol A, Sol B, and vehicle and no drops. An increase in Peak 1 and Peak 2 can be present after stiffening; therefore, one-tailed t-tests were used for statistical analysis to compare groups.
# The times at 3, 4, 5, and 6 weeks for the combined AB (treatment Sol A and treatment Sol B) treatment group were averaged for comparison against no therapy and vehicle. Peak 1 and Peak 2 were compared to both controls.
# [1] = tested on: LNL crosslinks in rabbit cornea; details: rabbits; 0.15 mg/ml eye drops twice a day for 6 weeks; LC-MS
# Procedure: After six weeks each group of corneas is dissected, weighed and used for LNL analysis. Samples are reduced with NaBH4 at room temperature then washed twice with water, dried, and hydrolyzed with 6N
# HCl in vacuo for 18 hours at 110° C. […] The hydrolysates are dried to evaporate HCL, reconstituted with H2O, and re-dried to remove residual HCl. Post hydrolysis, cross-link enrichment is carried out using a cellulose mini-column method. Samples are then provided for LNL analysis by mass spectroscopy (LC/MS).
# To perform liquid chromatography/mass spectroscopy (LC/MS), 1 μL of 100 μg/mL d9-Lysine is added to all samples as an internal standard. A calibration curve is created using serial dilution. Semi-quantitative mass spectral analysis is performed using a Sciex 6500 Q-Trap (Sciex, Farmington, MA). A helicon iHILIC-Fusion 2.1×100 mm column (Umeå, Sweden) is used for chromatography using 10 mM NH4OAc (Buffer A) and ACN (Buffer B). LC/MS is performed in the positive mode with a TurboIon source using optimized source conditions. Quantitative data analysis is conducted using Sciex MultiQuant software.
# rabbits = details: 0.15 mg/ml eye drops 2 times per day for approximately 60 days
# Procedure: Treatment using 0.15 mg/ml copper sulfate pentahydrate in an ophthalmic vehicle is administered at approximately 6 weeks of age to rabbits. Eyedrops are administered 2 times per day for approximately 60 days. Refractive error is measured by an ophthalmologist prior to treatment on day 1 and at subsequent time-points (e.g., 14 days, 27 days, 44 days, and 62 days after the beginning of treatment) depicted in FIG. 3. […] Stable refractive errors are typically obtained after 15 minutes when there is no pupil response. FIG. 3 presents refractive error measurements for the test subjects in each eye.
# guinea pigs = assay: Refractive error by streak retinoscopy in guinea pigs, 60-day atropine eye drop treatment; type: in vivo; details: .001% eye drops 2 times per day for approximately 60 days
# Procedure: Treatment using .001% atropine sulfate monohydrate eye drops is administered at approximately 1 week of age to guinea pigs. The eye drops are administered 2 times per day for approximately 60 days. Refractive error is measured by an ophthalmologist prior to treatment on day 1 and at subsequent time-points (e.g., 14 days, 27 days, 44 days, and 62 days after the beginning of treatment) depicted in FIGS. 1A-1C. […] Stable refractive errors are typically obtained after 15 minutes when there is no pupil response.
structure (smiles),measurement,setting,value
O=S(=O)([O-])[O-].[Cu+2] [Copper sulfate],Corneal stiffening in vivo as measured by waveform response to air puff deformation,cornea; ORA,generates stiffening in vivo
same,"Peak 1, treated group AB versus no therapy","cornea; weeks 3, 4, 5 and 6 averaged, combined Sol A and Sol B, one-tailed t-test p=0.0244",significantly greater than no therapy
same,"Peak 2, treated group AB versus vehicle","cornea; weeks 3, 4, 5 and 6 averaged, combined Sol A and Sol B, p<0.0001",significantly greater
same,"Peak 2, treated group AB versus no therapy","cornea; weeks 3, 4, 5 and 6 averaged, combined Sol A and Sol B, p=0.0098",significantly greater than no therapy
same,"Peak 1, treated group AB versus vehicle","cornea; weeks 3, 4, 5 and 6 averaged, combined Sol A and Sol B, p=0.0763",no substantial difference
O.O.O.O.O.O=S(=O)([O-])[O-].[Cu+2] [copper sulfate pentahydrate],LNL crosslinks in treated rabbit cornea compared to control (no treatment) and vehicle group,[1],significant increases
same,Reduction of myopic progression in the treatment eye compared to control,rabbits,approximately 63%
"CN1[C@@H]2CC[C@H]1CC(OC(=O)C(CO)c1ccccc1)C2.CN1[C@@H]2CC[C@H]1CC(OC(=O)C(CO)c1ccccc1)C2.O.O=S(=O)(O)O (some centres unmarked) [Atropine, atropine sulfate monohydrate]",Progression of myopia (refractive error),guinea pigs,Slows Progression of Myopia
